Data set [1] deals with USP1/UAF1 enzyme (Homo sapiens, UniProt O94782). The data set can be described thus: USP1/UAF1 deubiquitination assay (ubiquitin-rhodamine 110 substrate). The class given is biochemical. The settings on record: read-out: USP1 IC50 (Ub-Rho). In outline:
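0.05 nM USP1/UAF1 was preincubated 10 min with compounds (dose response from 10 μM) in 50 mM Tris-HCl pH 7.8, 0.5 mM EDTA, 0.01% BSA, 1 mM DTT, 0.01% Tween-20. 150 nM ubiquitin-rhodamine 110 started the reaction, read kinetically 30 min at Ex480/Em540; IC50 by four-parameter fit versus no-enzyme and DMSO controls.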

Data set [2] has as its system Ub-PCNA levels in the nucleus of ES2 cells (USP1 activity). The data set can be described thus: ES2 Ub-PCNA immunofluorescence (IF) assay. It counts as cell-based. The settings on record: Homo sapiens, ES-2; ES2 cells, 3 hours, Ub-PCNA immunofluorescence; read-out: USP1 IC50 (Ub-PCNA). An outline of the steps:
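Cells plated overnight, then compound-treated for 3 h at 37° C (0.3% DMSO final), methanol-fixed and stained with anti-Ub-PCNA plus DAPI. Per-nucleus Ub-PCNA intensity imaged; cells above the 95% cutoff of untreated wells counted as positive, and percent positive cells used to derive AC50.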

The nature of data set [3]: ADME solubility determination in PBS at pH 2.0 and pH 7.4. The settings on record: phosphate buffered saline, 25 °C, thermodynamic from solid. The class given is physicochemical. An outline of the steps:
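Dried 10 mM DMSO stock residues taken up in PBS pH 7.4 or pH 2.0, shaken 24 h at 25° C. After centrifugation, supernatant quantified by LC-MS/MS against a standard of known concentration, with a dilution factor applied.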

Data set [4] can be described thus: Liver microsomal metabolic stability, rat liver microsomes (RLM). As to conditions: rat, liver microsomes, t1/2 (min) in RLM, 1 μM compound, 1 mg/mL microsomes, NADPH.
A short description of data set [5]: Liver microsomal metabolic stability, human liver microsomes (HLM). The settings on record: human, liver microsomes. (Microsomes from liver hold many membrane-bound enzymes, among them those of drug oxidation.)
The mark [6] stands for this setting: pH 2, aqueous buffer, PBS pH 2.0, 25° C., read-out: Solubility at pH 2.0.
The mark [7] stands for this setting: pH 7.4, aqueous buffer, PBS pH 7.4, 25° C., read-out: Solubility at pH 7.4.

Like-named read-outs stand apart in the source and are kept apart here.

Broadly, the IC50 is the point on the concentration scale where inhibition reaches its midpoint. Usually solubility stands for the concentration that dissolves in the medium under given conditions. What is called half-life is the time needed for the level to fall by half in the phase considered. A high value points to slow decline.

Chain of USP1/UAF1 enzyme (O94782 whole entry): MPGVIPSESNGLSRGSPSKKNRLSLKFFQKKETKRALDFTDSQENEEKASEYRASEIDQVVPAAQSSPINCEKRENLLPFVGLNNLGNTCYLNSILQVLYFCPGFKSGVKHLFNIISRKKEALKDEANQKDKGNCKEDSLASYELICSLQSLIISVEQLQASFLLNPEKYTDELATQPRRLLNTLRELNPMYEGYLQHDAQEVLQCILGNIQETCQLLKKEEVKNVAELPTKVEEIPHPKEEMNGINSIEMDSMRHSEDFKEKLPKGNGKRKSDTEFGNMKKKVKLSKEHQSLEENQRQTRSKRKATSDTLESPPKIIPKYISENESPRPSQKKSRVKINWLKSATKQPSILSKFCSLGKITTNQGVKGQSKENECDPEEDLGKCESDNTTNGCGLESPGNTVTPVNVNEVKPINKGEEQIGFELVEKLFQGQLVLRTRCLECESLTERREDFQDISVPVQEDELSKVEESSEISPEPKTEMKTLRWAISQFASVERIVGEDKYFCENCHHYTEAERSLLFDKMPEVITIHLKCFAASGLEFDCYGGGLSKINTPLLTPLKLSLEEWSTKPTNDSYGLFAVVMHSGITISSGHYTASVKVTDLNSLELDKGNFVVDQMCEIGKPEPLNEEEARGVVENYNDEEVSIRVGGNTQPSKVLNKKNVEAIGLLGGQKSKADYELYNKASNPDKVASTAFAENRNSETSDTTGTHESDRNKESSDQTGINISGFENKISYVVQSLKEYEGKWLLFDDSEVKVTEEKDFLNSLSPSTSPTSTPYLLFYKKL
Chain of USP1/UAF1 enzyme (Q8TAF3 whole entry partner): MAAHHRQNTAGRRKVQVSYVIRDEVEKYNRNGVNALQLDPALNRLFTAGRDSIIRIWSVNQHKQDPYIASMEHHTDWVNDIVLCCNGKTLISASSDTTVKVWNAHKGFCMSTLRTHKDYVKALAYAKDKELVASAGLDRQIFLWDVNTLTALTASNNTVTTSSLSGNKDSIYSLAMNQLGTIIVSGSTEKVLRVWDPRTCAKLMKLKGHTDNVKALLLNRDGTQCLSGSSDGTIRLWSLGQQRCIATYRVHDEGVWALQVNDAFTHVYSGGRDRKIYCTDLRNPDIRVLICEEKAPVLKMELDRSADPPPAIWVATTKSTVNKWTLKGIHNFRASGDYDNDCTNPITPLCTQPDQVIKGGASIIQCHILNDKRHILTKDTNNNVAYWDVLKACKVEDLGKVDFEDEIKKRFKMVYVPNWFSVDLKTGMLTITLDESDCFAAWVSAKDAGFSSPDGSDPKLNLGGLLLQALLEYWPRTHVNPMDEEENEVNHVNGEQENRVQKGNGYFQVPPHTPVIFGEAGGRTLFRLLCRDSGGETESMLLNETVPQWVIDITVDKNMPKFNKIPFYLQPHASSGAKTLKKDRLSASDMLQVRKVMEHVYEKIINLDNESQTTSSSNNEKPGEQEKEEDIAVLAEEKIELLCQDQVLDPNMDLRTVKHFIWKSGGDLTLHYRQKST

On to `CCn1cc(C(F)(F)F)nc1-c1ccc(C(C)N2C(=O)CCn3nc(-c4c(Cl)cnn4C(C)C)cc32)cc1` (stereo not drawn) [Example 113], for which the IC50 in data set [1] and in data set [2] was under 100 nM in each case. The solubility at 24 h in data set [3] (setting [6]) and in data set [3] (setting [7]) was under 10 µM in each case. The half-life at 1 μM in data set [4] and in data set [5] was under 25 min throughout.

As to `CCn1cc(C(F)(F)F)nc1-c1ccc(C(C)N2C(=O)CCn3nc(-c4c(OC)ncnc4C4CC4)cc32)cc1` (stereo not drawn) [Example 114], the IC50 in data set [1] was under 100 nM; in data set [2] it was 100 to 500 nM. Besides, the solubility at 24 h in data set [3] (setting [6]) and in data set [3] (setting [7]) was at least 10 µM each time. Also, the half-life at 1 μM in data set [4] was under 25 min; in data set [5], over 25 min.

In the case of `CCOc1cc(C(F)(F)F)nn1-c1ccc(CN2C(=O)CCn3nc(-c4c(Cl)cnn4C(C)C)cc32)cc1` [Example 115], the half-inhibitory concentration (IC50) in data set [1] and in data set [2] was under 100 nM in each case. In addition, the solubility at 24 h in data set [3] (setting [6]) and in data set [3] (setting [7]) was under 10 µM each time. For the same compound, the half-life at 1 μM in data set [4] and in data set [5] was over 25 min throughout.

Take `CC(C)n1ncc(Cl)c1-c1cc2n(n1)CCC(=O)N2Cc1ccc(-c2cn(C)c(C(F)(F)F)n2)cc1` [Example 116]: the IC50 in data set [1] was under 100 nM; in data set [2], 100 to 500 nM. For the same compound, the solubility at 24 h in data set [3] (setting [6]) and in data set [3] (setting [7]) was under 10 µM in each case. Also, the half-life at 1 μM in data set [4] and in data set [5] was over 25 min throughout.

`CCn1cc(Cl)nc1-c1ccc(CN2C(=O)CCn3nc(-c4c(Cl)cnn4C(C)C)cc32)cc1` [Example 118]: the IC50 in data set [1] and in data set [2] was under 100 nM each time. The solubility at 24 h in data set [3] (setting [6]) and in data set [3] (setting [7]) was under 10 µM in each case. Further, the half-life at 1 μM in data set [4] and in data set [5] was under 25 min each time.

Consider `CCn1cc(C(F)(F)F)nc1-c1ccc(C(C)N2C(=O)CCn3nc(-c4c(Cl)cnn4C(C)C)cc32)cc1F` (stereo not drawn) [Example 119], for which the IC50 in data set [1] and in data set [2] was under 100 nM each time. The solubility at 24 h in data set [3] (setting [6]) and in data set [3] (setting [7]) was under 10 µM each time. Further, the results for the half-life at 1 μM in data set [4] and in data set [5] were under 25 min and over 25 min, respectively.

Take `CCn1cc(C(F)(F)F)nc1-c1ccc(C(C)N2C(=O)CCn3nc(-c4c(OC)ncnc4C4CC4)cc32)cc1F` (stereo not drawn) [Example 120]: the IC50 in data set [1] and in data set [2] was under 100 nM throughout. Further, the solubility at 24 h in data set [3] (setting [6]) and in data set [3] (setting [7]) was under 10 µM throughout. The half-life at 1 μM in data set [4] and in data set [5] was over 25 min each time.

`COc1ncnc(C2CC2)c1-c1cc2n(n1)CCC(=O)N2[C@@H](C)c1ccc(-c2nc(C(F)(F)F)cn2C(C)C)cc1` [Example 122]: the IC50 in data set [1] was 100 to 500 nM; in data set [2], over 500 nM. For the same compound, the solubility at 24 h in data set [3] (setting [6]) was at least 10 µM; in data set [3] (setting [7]), under 10 µM. The half-life at 1 μM in data set [4] and in data set [5] was over 25 min in each case.

Take `COc1ncnc(C2CC2)c1-c1cc2n(n1)CCC(=O)N2[C@H](C)c1ccc(-c2nc(C(F)(F)F)cn2C(C)C)cc1` [Example 123]: the concentration for half-maximal inhibition (IC50) in data set [1] and in data set [2] was under 100 nM throughout. Moreover, the solubility at 24 h is at least 10 µM in data set [3] (setting [6]) and under 10 µM in data set [3] (setting [7]). For the same compound, the half-life at 1 μM in data set [4] and in data set [5] was over 25 min each time.

With `CCn1cc(C(F)(F)F)nc1-c1ccc([C@H](C)N2C(=O)CCn3nc(-c4c(OC)ncnc4C4CC4)cc32)cc1` [Example 124], the values for the IC50 in data set [1] and in data set [2] were 100 to 500 nM and over 500 nM, respectively. The solubility at 24 h in data set [3] (setting [6]) and in data set [3] (setting [7]) was at least 10 µM in each case. Further, the half-life at 1 μM in data set [4] and in data set [5] was under 25 min throughout.

Take `CCn1cc(C(F)(F)F)nc1-c1ccc([C@@H](C)N2C(=O)CCn3nc(-c4c(OC)ncnc4C4CC4)cc32)cc1` [Example 125]: the 50% inhibitory concentration (IC50) in data set [1] and in data set [2] was under 100 nM each time. Moreover, the solubility at 24 h is at least 10 µM in data set [3] (setting [6]) and under 10 µM in data set [3] (setting [7]). The half-life at 1 μM in data set [4] and in data set [5] was over 25 min each time.

Consider `COc1cc([C@@H](C)N2C(=O)CCn3nc(-c4c(OC)ncnc4C4CC4)cc32)ccc1-c1nc(C(F)(F)F)cn1C(C)C` [Example 129], for which the IC50 in data set [1] and in data set [2] was under 100 nM each time. The solubility at 24 h was at least 10 µM in data set [3] (setting [6]) and under 10 µM in data set [3] (setting [7]). In addition, the half-life at 1 μM in data set [4] was under 25 min; in data set [5] it was over 25 min.

In the case of `CCn1cc(C(F)(F)F)nc1-c1ccc(CN2C(=O)CCn3nc(-c4c(Cl)cnn4[C@H](C)COC)cc32)cc1F` [Example 131], the 50% inhibitory concentration (IC50) in data set [1] and in data set [2] was under 100 nM each time. For the same compound, the solubility at 24 h in data set [3] (setting [6]) and in data set [3] (setting [7]) was under 10 µM each time. Also, the half-life at 1 μM in data set [4] and in data set [5] was under 25 min throughout.

Turning to `CCn1cc(C(F)(F)F)nc1-c1ccc(CN2C(=O)CCn3nc(-c4c(Cl)cnn4[C@@H](C)COC)cc32)cc1F` [Example 132], the 50% inhibitory concentration (IC50) in data set [1] and in data set [2] was under 100 nM in each case. The solubility at 24 h in data set [3] (setting [6]) and in data set [3] (setting [7]) was under 10 µM each time. The half-life at 1 μM in data set [4] and in data set [5] was under 25 min each time.

Consider `CC(C)n1ncc(Cl)c1-c1cc2n(n1)CCC(=O)N2Cc1ccc(-c2nn(C)cc2C#N)cc1` [Example 133], for which the IC50 was under 100 nM in data set [1] and 100 to 500 nM in data set [2]. Further, the solubility at 24 h in data set [3] (setting [6]) and in data set [3] (setting [7]) was under 10 µM in each case. Besides, the half-life at 1 μM in data set [4] and in data set [5] was over 25 min each time.

As for `COc1cc(C)nn1-c1ccc(CN2C(=O)CCn3nc(-c4c(Cl)cnn4C(C)C)cc32)cc1` [Example 135], the IC50 in data set [1] and in data set [2] was under 100 nM each time. The solubility at 24 h in data set [3] (setting [6]) and in data set [3] (setting [7]) was under 10 µM each time. Further, the half-life at 1 μM in data set [4] and in data set [5] was under 25 min each time.

In the case of `CCn1cc(C(F)(F)F)nc1-c1ccc([C@@H](C)N2C(=O)CCn3nc(-c4c(Cl)cnn4C(C)C)cc32)cn1` [Example 139], the IC50 is under 100 nM in data set [1] and 100 to 500 nM in data set [2]. In addition, the solubility at 24 h in data set [3] (setting [6]) and in data set [3] (setting [7]) was under 10 µM in each case. The half-life at 1 μM in data set [4] and in data set [5] was over 25 min in each case.

Turning to `CCn1cc(C(F)(F)F)nc1-c1c(F)cc(CN2C(=O)CCn3nc(-c4c(OC)ncnc4C4CC4)cc32)cc1OC` [Example 140], the IC50 in data set [1] and in data set [2] was under 100 nM in each case. Also, the values for the solubility at 24 h in data set [3] (setting [6]) and in data set [3] (setting [7]) were at least 10 µM and under 10 µM, respectively. Besides, the half-life at 1 μM in data set [4] and in data set [5] was over 25 min in each case.

`CCn1cc(C(F)(F)F)nc1-c1c(F)cc(CN2C(=O)CCn3nc(-c4c(Cl)cnn4C(C)C)cc32)cc1OC` [Example 141]: the IC50 in data set [1] and in data set [2] was under 100 nM in each case. The solubility at 24 h in data set [3] (setting [6]) and in data set [3] (setting [7]) was under 10 µM in each case. For the same compound, the half-life at 1 μM in data set [4] and in data set [5] was over 25 min throughout.

As to `CCn1cc(C(F)(F)F)nc1-c1ccc([C@H](C)N2C(=O)CCn3nc(-c4c(OC)ncnc4C4CC4)cc32)cc1F` [Example 142], the IC50 in data set [1] and in data set [2] was 100 to 500 nM each time. Further, the solubility at 24 h was at least 10 µM in data set [3] (setting [6]) and under 10 µM in data set [3] (setting [7]). Besides, the half-life at 1 μM was under 25 min in data set [4] and over 25 min in data set [5].

For `CCn1cc(C(F)(F)F)nc1-c1ccc([C@@H](C)N2C(=O)CCn3nc(-c4c(OC)ncnc4C4CC4)cc32)cc1F` [Example 143], the IC50 in data set [1] and in data set [2] was under 100 nM throughout. The solubility at 24 h in data set [3] (setting [6]) and in data set [3] (setting [7]) was at least 10 µM each time. Also, the half-life at 1 μM in data set [4] and in data set [5] was over 25 min in each case.

For `COc1cc(CN2C(=O)CCn3nc(-c4c(OC)ncnc4C4CC4)cc32)cc(F)c1-c1nc(C(F)(F)F)cn1C(C)C` [Example 144], the concentration for half-maximal inhibition (IC50) in data set [1] and in data set [2] was under 100 nM in each case. The values for the solubility at 24 h in data set [3] (setting [6]) and in data set [3] (setting [7]) were at least 10 µM and under 10 µM, respectively. Also, the half-life at 1 μM in data set [4] and in data set [5] was over 25 min throughout.

For the compound `CCn1cc(C(F)(F)F)nc1-c1c(Cl)cc(CN2C(=O)CCn3nc(-c4c(OC)ncnc4C4CC4)cc32)cc1OC` [Example 145], the IC50 in data set [1] and in data set [2] was under 100 nM each time. Moreover, the solubility at 24 h in data set [3] (setting [6]) and in data set [3] (setting [7]) was under 10 µM in each case. Besides, the half-life at 1 μM in data set [4] and in data set [5] was under 25 min throughout.
